{"source": "ChEMBL document CHEMBL5380779", "about": "“Small Molecules Targeting the RNA-Binding Protein HuR Inhibit Tumor Growth in Xenografts” (J Med Chem, 2023)", "key": {"MDA-MB-231 [1]": {"tested_on": "MDA-MB-231", "test": "Inhibition of HuR-TGFB2 mRNA binding in human MDA-MB-231 cells incubated for 6 hrs by RNP immunoprecipitation assay", "type": "cell-based"}, "MDA-MB-231 [2]": {"tested_on": "MDA-MB-231", "test": "Inhibition of HuR-THBS1 mRNA binding in human MDA-MB-231 cells assessed as half life of THBS1 in presence of actinomycin D (reference value: 10.46 hrs)", "type": "cell-based"}, "MDA-MB-231 [3]": {"tested_on": "MDA-MB-231", "test": "Downregulation of HuR protein expression in human MDA-MB-231 cells at 5 to 10 uM incubated for 48 hrs by Western blotting analysis", "type": "functional, cell-based", "settings": "dose 5-10 µM"}, "MDA-MB-231 [4]": {"tested_on": "MDA-MB-231", "test": "Downregulation of Msi2 protein expression in human MDA-MB-231 cells incubated for 48 hrs by Western blotting analysis", "type": "functional, cell-based", "settings": "dose 5-10 µM"}, "MDA-MB-231 [5]": {"tested_on": "MDA-MB-231", "test": "Inhibition of HuR-TGFB2 mRNA binding in human MDA-MB-231 cells assessed as half life of TGFB2 in presence of actinomycin D (reference value: 7.202 hrs)", "type": "cell-based"}, "MDA-MB-231 [6]": {"tested_on": "MDA-MB-231", "test": "Inhibition of HuR-THBS1 mRNA binding in human MDA-MB-231 cells incubated for 6 hrs by RNP immunoprecipitation assay", "type": "cell-based"}, "MDA-MB-231 [7]": {"tested_on": "MDA-MB-231", "test": "Antitumor activity against human MDA-MB-231 cells xenografted athymic NCr-nu/nu mouse assessed as reduction in tumor size at 50 mg/kg, ip administered 5 times a week for 3 weeks in presence of docetaxel", "type": "functional, organism-based"}, "[8]": {"test": "Inhibition of full-length HuR-ARE fluorescein-labeled Msi1 mRNA binding (unknown origin) incubated for 2 hrs by fluorescence polarization assay", "design": "species or system Homo sapiens"}, "MDA-MB-231 [9]": {"tested_on": "MDA-MB-231", "test": "Cytotoxicity against HuR knockout 2 human MDA-MB-231 cells assessed as inhibition of cell growth by MTT assay (reference value: 5.320 uM)", "type": "functional, cell-based"}, "MDA-MB-231 [10]": {"tested_on": "MDA-MB-231", "test": "Antitumor activity against human MDA-MB-231 cells xenografted athymic NCr-nu/nu mouse assessed as reduction in tumor size at 50 mg/kg, ip administered 5 times a week for 3 weeks", "type": "functional, organism-based"}, "MDA-MB-231 [11]": {"tested_on": "MDA-MB-231", "test": "Cytotoxicity against HuR knockout 1 human MDA-MB-231 cells assessed as inhibition of cell growth by MTT assay (reference value: 5.320 uM)", "type": "functional, cell-based"}, "MDA-MB-231 [12]": {"tested_on": "MDA-MB-231", "test": "Inhibition of HuR-Bcl-2 mRNA binding in human MDA-MB-231 cells at 10 uM incubated for 6 hrs by RNP immunoprecipitation assay", "type": "cell-based"}, "[13]": {"biological_target": "Thrombospondin-1 (Homo sapiens) (UniProt P07996)", "sequence (P07996 19-1170 limits assumed)": "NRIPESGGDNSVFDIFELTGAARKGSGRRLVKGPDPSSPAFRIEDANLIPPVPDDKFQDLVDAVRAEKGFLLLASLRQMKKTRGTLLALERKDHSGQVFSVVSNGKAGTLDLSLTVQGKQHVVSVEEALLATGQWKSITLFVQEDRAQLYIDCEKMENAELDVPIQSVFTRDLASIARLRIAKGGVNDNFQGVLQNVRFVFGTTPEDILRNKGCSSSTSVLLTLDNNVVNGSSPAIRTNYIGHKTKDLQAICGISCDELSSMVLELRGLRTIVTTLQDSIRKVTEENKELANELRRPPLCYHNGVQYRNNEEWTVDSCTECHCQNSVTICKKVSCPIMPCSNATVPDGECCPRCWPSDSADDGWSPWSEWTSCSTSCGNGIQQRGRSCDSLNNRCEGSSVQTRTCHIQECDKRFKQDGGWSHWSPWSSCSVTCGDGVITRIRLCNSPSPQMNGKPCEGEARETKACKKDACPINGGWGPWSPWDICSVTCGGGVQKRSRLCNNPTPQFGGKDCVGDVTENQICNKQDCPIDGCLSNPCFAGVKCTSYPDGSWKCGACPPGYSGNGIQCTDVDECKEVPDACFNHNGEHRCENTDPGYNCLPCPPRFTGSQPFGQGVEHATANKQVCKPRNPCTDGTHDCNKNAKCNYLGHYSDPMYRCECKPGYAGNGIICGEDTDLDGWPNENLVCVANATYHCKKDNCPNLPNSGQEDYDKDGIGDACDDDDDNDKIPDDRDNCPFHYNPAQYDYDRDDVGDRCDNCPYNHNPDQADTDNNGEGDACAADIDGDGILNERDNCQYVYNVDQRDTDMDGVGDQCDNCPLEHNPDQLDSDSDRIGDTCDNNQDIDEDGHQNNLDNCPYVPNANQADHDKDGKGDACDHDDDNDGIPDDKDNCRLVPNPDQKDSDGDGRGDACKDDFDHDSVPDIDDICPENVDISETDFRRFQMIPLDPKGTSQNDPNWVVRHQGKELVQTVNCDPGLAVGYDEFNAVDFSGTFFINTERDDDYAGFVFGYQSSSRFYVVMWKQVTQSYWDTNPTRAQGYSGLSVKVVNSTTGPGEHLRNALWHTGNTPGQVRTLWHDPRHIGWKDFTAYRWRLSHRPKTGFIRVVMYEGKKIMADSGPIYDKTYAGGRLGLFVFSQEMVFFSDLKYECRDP", "test": "Inhibition of TGFbeta1-induced THBS1 protein expression in human MDA-MB-231 cells at 10 uM incubated for 48 hrs by Western blotting analysis", "type": "cell-based"}, "[14]": {"biological_target": "Thrombospondin-1 (Homo sapiens) (UniProt P07996)", "test": "Inhibition of TGFbeta2-induced THBS1 protein expression in human MDA-MB-231 cells at 10 uM incubated for 48 hrs by Western blotting analysis", "type": "cell-based"}, "[15]": {"biological_target": "RNA-binding protein Musashi homolog 2 (Homo sapiens) (UniProt Q96DH6)", "sequence (Q96DH6 whole entry)": "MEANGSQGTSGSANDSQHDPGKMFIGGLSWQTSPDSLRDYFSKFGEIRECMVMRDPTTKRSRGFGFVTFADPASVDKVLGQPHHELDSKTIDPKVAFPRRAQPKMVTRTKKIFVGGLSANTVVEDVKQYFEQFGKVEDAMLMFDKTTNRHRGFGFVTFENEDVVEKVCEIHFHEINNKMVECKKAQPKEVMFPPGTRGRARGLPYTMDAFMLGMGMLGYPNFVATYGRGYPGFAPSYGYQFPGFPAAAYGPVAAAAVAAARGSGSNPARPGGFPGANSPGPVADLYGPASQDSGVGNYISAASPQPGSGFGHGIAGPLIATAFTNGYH", "test": "Inhibition of TGFbeta2-induced Msi2 protein expression in human MDA-MB-231 cells at 10 uM incubated for 48 hrs by Western blotting analysis", "type": "cell-based"}, "MDA-MB-231 [16]": {"tested_on": "MDA-MB-231", "test": "Antitumor activity against human MDA-MB-231 cells xenografted athymic NCr-nu/nu mouse assessed as tumor growth delay by measuring tumor size at 400 mm^3 at 50 mg/kg, ip administered 5 times a week for 3 weeks (reference value: 15 days)", "type": "functional"}, "MDA-MB-231 [17]": {"tested_on": "MDA-MB-231", "test": "Inhibition of HuR-16-nt biotinylated ARE Msi1 mRNA binding in human MDA-MB-231 cells at 20 uM by Western blotting analysis based pull-down assay", "type": "cell-based"}, "MDA-MB-231 [18]": {"tested_on": "MDA-MB-231", "test": "Inhibition of HuR-XIAP mRNA binding in human MDA-MB-231 cells at 10 uM incubated for 6 hrs by RNP immunoprecipitation assay", "type": "cell-based"}, "MDA-MB-231 [19]": {"tested_on": "MDA-MB-231", "test": "Inhibition of HuR-Msi2 mRNA binding in human MDA-MB-231 cells at 10 uM incubated for 6 hrs by RNP immunoprecipitation assay", "type": "cell-based"}, "MDA-MB-231 [20]": {"tested_on": "MDA-MB-231", "test": "Downregulation of XIAP protein expression in human MDA-MB-231 cells incubated for 48 hrs by Western blotting analysis", "type": "functional, cell-based", "settings": "dose 5-10 µM"}, "[21]": {"biological_target": "RNA-binding protein Musashi homolog 2 (Homo sapiens) (UniProt Q96DH6)", "test": "Inhibition of TGFbeta1-induced Msi2 protein expression in human MDA-MB-231 cells at 10 uM incubated for 48 hrs by Western blotting analysis", "type": "cell-based"}, "MDA-MB-231 [22]": {"tested_on": "MDA-MB-231", "test": "Downregulation of TGFB2 mRNA expression in human MDA-MB-231 cells transfected with THBS1-ORF at 5 to 10 uM incubated for 24 hrs", "type": "functional, cell-based", "settings": "dose 5-10 µM"}, "[23]": {"biological_target": "ELAV-like protein 1 (Homo sapiens) (UniProt Q15717)", "sequence (Q15717 whole entry)": "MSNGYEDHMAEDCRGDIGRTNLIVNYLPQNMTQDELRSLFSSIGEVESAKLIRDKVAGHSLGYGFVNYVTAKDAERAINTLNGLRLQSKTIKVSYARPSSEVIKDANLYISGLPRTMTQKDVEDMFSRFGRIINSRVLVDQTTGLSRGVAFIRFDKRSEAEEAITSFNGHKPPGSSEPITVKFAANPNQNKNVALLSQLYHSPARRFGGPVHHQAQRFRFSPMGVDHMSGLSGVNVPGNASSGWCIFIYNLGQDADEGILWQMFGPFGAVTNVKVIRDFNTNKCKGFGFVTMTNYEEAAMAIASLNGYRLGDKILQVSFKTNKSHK", "test": "Inhibition of TGFbeta2-induced HuR protein expression in human MDA-MB-231 cells at 10 uM incubated for 48 hrs by Western blotting analysis", "type": "cell-based"}, "[24]": {"test": "Antitumor activity against human 2LMP cells xenografted athymic NCr-nu/nu mouse assessed as tumor growth inhibition at 50 mg/kg, ip administered 5 times a week for 3 weeks", "type": "functional", "settings": "504 h, read-out: TGI"}, "[25]": {"biological_target": "ELAV-like protein 1 (Homo sapiens) (UniProt Q15717)", "test": "Thermal stabilization of HuR in human MDA-MB-231 cells at 20 uM at 42 to 54 degreeC incubated for 1 hr by western blot based cellular thermal shift assay", "type": "cell-based"}, "MDA-MB-231 [26]": {"tested_on": "MDA-MB-231", "test": "Inhibition of cell invasion of human MDA-MB-231 cells at 10 uM incubated for 24 hrs by crystal violet staining based analysis", "type": "functional"}, "[27]": {"biological_target": "ELAV-like protein 1 (Homo sapiens) (UniProt Q15717)", "test": "Inhibition of TGFbeta1-induced HuR protein expression in human MDA-MB-231 cells at 10 uM incubated for 48 hrs by Western blotting analysis", "type": "cell-based"}, "MDA-MB-231 [28]": {"tested_on": "MDA-MB-231", "test": "Cytotoxicity against human MDA-MB-231 cells assessed as inhibition of cell growth by MTT assay", "type": "functional, cell-based"}, "[29]": {"test": "Toxicity in athymic NCr-nu/nu mouse xenografted with human 2LMP cells assessed as effect on body weight gain at 50 mg/kg, ip administered 5 times a week for 3 weeks", "type": "organism-based", "settings": "in vivo, 504 h"}, "MDA-MB-231 [30]": {"tested_on": "MDA-MB-231", "test": "Antitumor activity against human MDA-MB-231 cells xenografted athymic NCr-nu/nu mouse assessed as tumor growth delay by measuring tumor size at 400 mm^3 at 50 mg/kg, ip administered 5 times a week for 3 weeks in presence of docetaxel (reference value: 15 days)", "type": "functional"}, "MDA-MB-231 [31]": {"tested_on": "MDA-MB-231", "test": "Downregulation of Bcl-2 protein expression in human MDA-MB-231 cells incubated for 48 hrs by Western blotting analysis", "type": "functional, cell-based", "settings": "dose 5-10 µM"}}, "note": "Active and inactive are the calls of the source. The rule behind the calls is not given here."}
{"compound": "CC(C)(C)c1ccc(C(=O)Nc2ccc3[nH]c(C(=O)NO)cc3c2)cc1", "values": [{"measurement": "inhibition", "setting": "MDA-MB-231 [1]", "value": "Active"}, {"measurement": "T1/2", "setting": "MDA-MB-231 [2]", "value": 6.15, "unit": "h"}, {"measurement": "Activity", "setting": "MDA-MB-231 [3]", "value": "inactive"}, {"measurement": "Activity", "setting": "MDA-MB-231 [4]", "value": "Dose-Dependent Effect"}, {"measurement": "T1/2", "setting": "MDA-MB-231 [5]", "value": 4.76, "unit": "h"}, {"measurement": "inhibition", "setting": "MDA-MB-231 [6]", "value": "Active"}, {"measurement": "Activity", "setting": "MDA-MB-231 [7]", "value": "Active"}, {"measurement": "IC50", "setting": "[8]", "value": 2770, "unit": "nM"}, {"measurement": "Ki", "setting": "[8]", "value": 650, "unit": "nM"}, {"measurement": "IC50", "setting": "MDA-MB-231 [9]", "value": 12.5, "unit": "µM"}, {"measurement": "Activity", "setting": "MDA-MB-231 [10]", "value": "Active"}, {"measurement": "IC50", "setting": "MDA-MB-231 [11]", "value": 16.1, "unit": "µM"}, {"measurement": "inhibition", "setting": "MDA-MB-231 [12]", "value": "Active"}, {"measurement": "inhibition", "setting": "[13]", "value": "Active"}, {"measurement": "inhibition", "setting": "[14]", "value": "Active"}, {"measurement": "inhibition", "setting": "[15]", "value": "Active"}, {"measurement": "Time", "setting": "MDA-MB-231 [16]", "value": 18, "unit": "days"}, {"measurement": "inhibition", "setting": "MDA-MB-231 [17]", "value": "Active"}, {"measurement": "inhibition", "setting": "MDA-MB-231 [18]", "value": "Active"}, {"measurement": "inhibition", "setting": "MDA-MB-231 [19]", "value": "Active"}, {"measurement": "Activity", "setting": "MDA-MB-231 [20]", "value": "Dose-Dependent Effect"}, {"measurement": "inhibition", "setting": "[21]", "value": "Active"}, {"measurement": "Activity", "setting": "MDA-MB-231 [22]", "value": "Active"}, {"measurement": "inhibition", "setting": "[23]", "value": "Active"}, {"measurement": "inhibition in vivo at 50 mg/kg", "setting": "[24]", "value": 35, "unit": "%"}, {"measurement": "Activity", "setting": "[25]", "value": "Active"}, {"measurement": "inhibition", "setting": "MDA-MB-231 [26]", "value": "Active"}, {"measurement": "inhibition", "setting": "[27]", "value": "Active"}, {"measurement": "IC50", "setting": "MDA-MB-231 [28]", "value": 4.74, "unit": "µM"}, {"measurement": "Activity", "setting": "[29]", "value": "Non-Toxic"}, {"measurement": "Time", "setting": "MDA-MB-231 [30]", "value": 32, "unit": "days"}, {"measurement": "Activity", "setting": "MDA-MB-231 [31]", "value": "Dose-Dependent Effect"}]}
